Assay results from ChEMBL document CHEMBL1201862, “PubChem BioAssay data set” (2004).
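Step 1: Grow cells in 96-well plates. Step 2: Expose to compound for 48 hours at 5 concentrations. Step 3: Interpolate endpoints linearly; if unreached, use highest concentration. GI50 marks 50% less growth.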 Calls of active or inactive are those of the source. Rule as the data show it: active = GI50 up to about 1.1 µM and inactive = higher.

Columns and labels:
Experiment in all cases: growth of human tumour cells (NCI), 48 h
A549 = system: A549
HCT-116 = system: HCT-116
HCT-15 = system: HCT-15
HOP-62 = system: HOP-62
LOX IMVI = system: LOX IMVI
MDA-MB-231 = system: MDA-MB-231
Malme-3M = system: Malme-3M
NCI-H226 = system: NCI-H226
NCI-H460 = system: NCI-H460
OVCAR-3 = system: OVCAR-3
PC-3 = system: PC-3
RPMI-8226 = system: RPMI-8226
SF-268 = system: SF-268
SK-MEL-28 = system: SK-MEL-28
SK-MEL-2 = system: SK-MEL-2
SNB-19 = system: SNB-19
SW-620 = system: SW-620
TK-10 = system: TK-10
U-251 = system: U-251
SK-MEL-5 = system: SK-MEL-5

| Compound | GI50 (A549) | GI50 (HCT-116) | GI50 (HCT-15) [µM] | GI50 (HOP-62) | GI50 (LOX IMVI) | GI50 (MDA-MB-231) | GI50 (Malme-3M) | GI50 (NCI-H226) | GI50 (NCI-H460) | GI50 (OVCAR-3) | GI50 (PC-3) | GI50 (RPMI-8226) | GI50 (SF-268) | GI50 (SK-MEL-28) | GI50 (SK-MEL-2) | GI50 (SNB-19) | GI50 (SW-620) | GI50 (TK-10) | GI50 (U-251) | GI50 (SK-MEL-5) |
| --- | --- | --- | --- | --- | --- | --- | --- | --- | --- | --- | --- | --- | --- | --- | --- | --- | --- | --- | --- | --- |
| CCc1nc2ccc(NCCN(C)C)c3c(=O)c4ccccc4n1c23 | 0.38 µM (active) | 0.337 µM (active) | 0.456 | 0.796 µM (active) | 0.6 µM (active) | 0.135 µM (active) | 1.61 µM (inactive) | 1.07 µM (active) | 0.23 µM (active) | 0.979 µM (active) | 0.8 µM (active) | 0.752 µM (active) | 0.711 µM (active) | 2.44 µM (inactive) | 3.07 µM (inactive) | 2.57 µM (inactive) | 0.305 µM (active) | 2.31 µM (inactive) | 0.796 µM (active) |  |
| Cc1nc(N)c(N2CCN(C#N)CC2)c(O)n1 | > 100 µM (inactive) | > 100 µM (inactive) | > 100 | > 100 µM (inactive) | > 100 µM (inactive) | > 100 µM (inactive) | > 100 µM (inactive) | > 100 µM (inactive) | > 100 µM (inactive) | 28.8 µM (inactive) | > 100 µM (inactive) | > 100 µM (inactive) | > 100 µM (inactive) | > 100 µM (inactive) | > 100 µM (inactive) | > 100 µM (inactive) | > 100 µM (inactive) | > 100 µM (inactive) | > 100 µM (inactive) |  |
| O=C1/C(=C/c2ccc([N+](=O)[O-])cc2)C(=O)N(c2ccccc2)C1c1ccccc1 (stereo not given) | > 10 µM (inactive) | > 10 µM (inactive) | > 10 | > 10 µM (inactive) | > 10 µM (inactive) | > 10 µM (inactive) |  | > 10 µM (inactive) | > 10 µM (inactive) | > 10 µM (inactive) | > 10 µM (inactive) | > 10 µM (inactive) | > 10 µM (inactive) | > 10 µM (inactive) | > 10 µM (inactive) | > 10 µM (inactive) | > 10 µM (inactive) | > 10 µM (inactive) | > 10 µM (inactive) | > 10 µM (inactive) |
| CC(=O)N1c2ccccc2C2=NN=C(N(C)C)SC21 (stereo not given) | 2.89 µM (inactive) | 2.72 µM (inactive) | 0.838 | 3.8 µM (inactive) | 2.1 µM (inactive) | 1.89 µM (inactive) | 3.37 µM (inactive) | 3.12 µM (inactive) | 2.46 µM (inactive) | 3.05 µM (inactive) | 2.84 µM (inactive) | 5.96 µM (inactive) | 1.82 µM (inactive) | 3.47 µM (inactive) | 2.18 µM (inactive) | 3.85 µM (inactive) | 4.78 µM (inactive) | 9.06 µM (inactive) | 1.67 µM (inactive) |  |
| N#CC(C#N)=C1C(=O)NC(N)=C1C#N | > 100 µM (inactive) | > 100 µM (inactive) | > 100 | > 100 µM (inactive) | > 100 µM (inactive) | > 100 µM (inactive) | > 100 µM (inactive) | > 100 µM (inactive) | > 100 µM (inactive) |  | > 100 µM (inactive) | > 100 µM (inactive) | > 100 µM (inactive) | > 100 µM (inactive) | > 100 µM (inactive) | > 100 µM (inactive) | > 100 µM (inactive) | > 100 µM (inactive) | > 100 µM (inactive) | > 100 µM (inactive) |
